Laboratory results as given in patent US7524646B2 (priority 2001, dated 2009).
Where a chain is given by its changes, count along the chain named. In names and notes the source's numbering stands.

B1: K277Q: ValRS of E. coli with single substitution K277Q in the editing domain (protein, UniProt P07118 1-951, looked up, variant K277Q)
Valine--tRNA ligase: MEKTYNPQDIEQPLYEHWEKQGYFKPNGDESQESFCIMIPPPNVTGSLHMGHAFQQTIMDTMIRYQRMQGKNTLWQVGTDHAGIATQMVVERKIAAEEGKTRHDYGREAFIDKIWEWKAESGGTITRQMRRLGNSVDWERERFTMDEGLSNAVKEVFVRLYKEDLIYRGKRLVNWDPKLRTAISDLEVENRESKGSMWHIRYPLADGAKTADGKDYLVVATTRPETLLGDTGVAVNPEDPRYKDLIGKYVILPLVNRRIPIVGDEHADMEKGTGCVQITPAHDFNDYEVGKRHALPMINILTFDGDIRESAQVFDTKGNESDVYSSEIPAEFQKLERFAARKAVVAAVDALGLLEEIKPHDLTVPYGDRGGVVIEPMLTDQWYVRADVLAKPAVEAVENGDIQFVPKQYENMYFSWMRDIQDWCISRQLWWGHRIPAWYDEAGNVYVGRNEDEVRKENNLGADVVLRQDEDVLDTWFSSALWTFSTLGWPENTDALRQFHPTSVMVSGFDIIFFWIARMIMMTMHFIKDENGKPQVPFHTVYMTGLIRDDEGQKMSKSKGNVIDPLDMVDGISLPELLEKRTGNMMQPQLADKIRKRTEKQFPNGIEPHGTDALRFTLAALASTGRDINWDMKRLEGYRNFCNKLWNASRFVLMNTEGQDCGFNGGEMTLSLADRWILAEFNQTIKAYREALDSFRFDIAAGILYEFTWNQFCDWYLELTKPVMNGGTEAELRGTRHTLVTVLEGLLRLAHPIIPFITETIWQRVKVLCGITADTIMLQPFPQYDASQVDEAALADTEWLKQAIVAVRNIRAEMNIAPGKPLELLLRGCSADAERRVNENRGFLQTLARLESITVLPADDKGPVSVTKIIDGAELLIPMAGLINKEDELARLAKEVAKIEGEISRIENKLANEGFVARAPEAVIAKEREKLEGYAEAKAKLIEQQAVIAAL
B2: wild-type enzyme: wild-type valyl-tRNA synthetase (ValRS) of E. coli (protein, UniProt P07118 1-951, looked up)
Valine--tRNA ligase: B1 Valine--tRNA ligase with Q277K
B3: V276A: ValRS of E. coli with single substitution V276A in the editing domain (protein, UniProt P07118 1-951, looked up, variant V276A)
Valine--tRNA ligase: B1 Valine--tRNA ligase with V276A, Q277K
B4: D230N: ValRS of E. coli with single substitution D230N in the editing domain (protein, UniProt P07118 1-951, looked up, variant D230N)
Valine--tRNA ligase: B1 Valine--tRNA ligase with D230N, Q277K

Key:
[1] = test system: strain PS2449 (mutated gene ileS ala11, plasmid pTLH33); format: cell-based, E. coli; conditions: 0.1 ml of 25 mM amino acid in central well, 37 degrees, 24 hours
Description: (§1) Strains PS2306 and PS2449 are tested for their sensitivity to artificial amino acids which present a steric resemblance to isoleucine. The cells are cultivated in MS mineral medium, succinate (0.2%), arabinose (0.2%) for 24 h at 37 degrees centigrade and diluted at 1/250in MS mineral medium. 0.5 ml of this cell suspension are spread on a Petri dish containing 25 ml of MS medium supplemented with succinate (0.2%) and arabinose (0.2%). A well is then prepared in the middle of the dish and filled with 0.1 ml of an amino acid solution: • 1) 25 mM S-methyl cysteine • 2) 25 mM homocysteine • 3) 25 mM o-methyl-L-serine • 4) 25 mM Norleucine • 5) 25 mM Norvaline
(§2) The Petri dishes are then incubated at 37 degrees centigrade for 24 hours and the appearance of a zone of inhibition around the well is recorded. The diameters of the zones of attenuated growth are measured as follows: […]

[2] = test system: strain PS2306 (wild type ileS gene, plasmid pVDC433); format: cell-based, E. coli; conditions: 0.1 ml of 25 mM amino acid in central well, 37 degrees, 24 hours
Description: as §1, §2

strain β5520 = assay: Suppression of thymidine auxotrophy by S-carbamoyl-cysteine; format: cell-based, E. coli; conditions: absence of thymidine, aerobic
Description: One-step selection scheme. For the one-step selections, cysteine oxidation under aerobiosis and subsequent cystine precipitation from the growth medium was avoided by use of the non-oxidizable precursor S-carbamoyl-cysteine (Scc). Scc is a poor precursor of cysteine and sustains growth of a Cys-auxotrophic E. coli strain less efficiently than cysteine. However, at concentrations above 1 mM, Scc gave rise to suppression of the thymidine auxotrophy of strain β5520, while in the absence of thymidine no growth was detectable below 1 mM Scc. When β5419 cells bearing the thyA:Val146GUA allele on a high copy plasmid were plated on mineral glucose plates supplemented with Scc (3 mM), no colonies grew after prolonged incubation at 30° C. (The experiment was designed to detect a mutant at a frequency of 10^−10.) To increase the mutation frequency, a mutS::spc+ (33) mutator allele was introduced in the genetic background of strain β5419 by P1 transduction, yielding strain β5432 (the mutS::spc+ disruption disables the mismatch repair system and leads to random transitions and frameshifts (34)). Colonies then appeared on the same medium with a frequency of about 10^−8. No colonies were found on plates lacking Scc.

[^3H]Thr-tRNAval = Deacylation of mischarged Thr-tRNAVal by ValRS enzymes; format: biochemical, E. coli; conditions: 2 nM enzyme, room temperature
Description: FIG. 5B: Histogram representation of the inhibition zone diameters of DvalS::kanR strains harboring each of the ValRS editing mutants on plasmid in response to exogenous Abu. Effects range from mild to severe. Histogram representation of the percentage of mischarged Thr-tRNAVal remaining after incubation with 2 nM enzyme for 15 minutes at room temperature. Both show a distinct range in the severity of editing defects caused by these point mutations. Taken together this illustrates a correlation between the ability of the mutant enzyme to deacylate mischarged amino acids from tRNAVal in vitro and the degree of in vivo toxicity.
(§3) Misacylation of Thr onto tRNAval was performed in the same conditions except 5.86 μM [^3H]Thr was substituted forVal in the reaction. To test deacylation rates for these enzymes it was necessary to generate [^3H]Thr-tRNAval. […] Enzyme was incubated with 2.5 μM tRNAval and 45 uM [^3H]Thr, incubated at 37 C. for 45 minutes, extracted twice in phenol:chloroform, and ethanol precipitated. Pellet was dissolved in 100 μL sterile H2O and scintillation counting was used to determine the success of the reaction. Deacylation reactions, done in triplicate for each enzyme, were performed in 155 mM Tris-HCl (pH 7.5), 100 μg/ml BSA, 10 mM MgCl2. At room temperature 2 nM enzyme was combined with [^3H]Thr-tRNAval, at 3, 6, 9, 16, and 30 minutes aliquots (9 μL) of the reaction mixture were precipitated with tricholoracetic acid, and the amount of misaminoacylated [^3H]Thr-tRNAval remaining in the sample was determined by scintillation counting. A no enzyme control reaction was included to provide reference point.

tRNA^Val = assay: Misacylation of tRNAVal with Thr; format: biochemical, E. coli; conditions: pH 7.5, 37° C.
Description: FIG. 2B: A graph showing misaminoacylation of tRNA^Val with Thr by the T222P mutant enzyme at pH 7.5 and 37° C. The wild-type (WT) and mutant alleles were cloned under the control of a PBAD promoter (30). The enzymes were partially purified from a laboratory strain lacking the chromosomal copy of the valS gene (ΔvalS::kan+). The purification and aminoacylation procedures were adapted from Hendrickson et al. (31). (Main panel) Misaminoacylation of tRNA^Val with Thr by the two enzymes. (Inset) Aminoacylation of tRNA^Val with Val by the two enzymes.
Aminoaclyation Assay, Misacylation, and Deacylation: Aminoacylation assays were performed at 37 C. in a 100 uL volume containing buffer (20 mM HEPES, 0.1 mM EDTA disodium salt, 0.15M NH4Cl, 10 ug/mL BSA pH 7.5), […] MgCl2, 0.7 μM [^3H]Val, 20 μM cold Val, 2 μM tRNAval (Sigma) and 20 nM ValRS enzyme (adapted from Hendrickson et al. 2000). Aliquots (10 μL) of the reaction mixture were precipitated with tricholoracetic acid, and the level of aminoacylation of the tRNA was determined by scintillation counting.
as §3

Molecule | diameters of the zones of attenuated growth [1] [cm] | diameters of the zones of attenuated growth [2] [cm] | concentration giving suppression of the thymidine auxotrophy (strain β5520) | deacylation of Thr-tRNA^Val in vitro ([^3H]Thr-tRNAval) | misacylation of tRNA^Val with Thr (tRNA^Val)
CSC[C@H](N)C(=O)O [S-methyl-L-cysteine] | 3.0 | 1.3 |  |  | 
COC[C@H](N)C(=O)O [O-methyl-L-serine] | 5.6 | 2.2 |  |  | 
CCC[C@H](N)C(=O)O [Norvaline] | 8.0 | 3.7 |  |  | 
N[C@@H](CCS)C(=O)O [Homocysteine] | 2.9 | 2.1 |  |  | 
NC(=O)SC[C@H](N)C(=O)O [Scc, S-carbamoyl-cysteine] |  |  | above 1 mM |  | 
CCCC[C@H](N)C(=O)O [Norleucin, Norleucine] | 3.4 | 2.9 |  |  | 
B1 |  |  |  | most severe defects | high levels of mischarged Thr-tRNA^Val
B2 |  |  |  |  | no detectable mischarged tRNA^Val
B3 |  |  |  | closer to wild-type ValRS | low levels of mischarging
B4 |  |  |  | slowed rate of deacylation | low levels of mischarging
